Where no end group is shown, it is not given here. [ ]: non-standard residue; d: D form. Met(O2) = CS(=O)(=O)CC[C@H](N)C(=O)O; dAllylGly = C=CC[C@@H](N)C(=O)O; AllylGly = C=CC[C@H](N)C(=O)O; Phg = N[C@H](C(=O)O)c1ccccc1; hSer = N[C@@H](CCO)C(=O)O; Nva = CCC[C@H](N)C(=O)O; Abu = CC[C@H](N)C(=O)O; βAla = NCCC(=O)O
Key:
CaCo2 monolayers [1] = test: Epithelial flux of Lucifer Yellow through cell monolayer; format: cell-based; set-up: key to Enhanced LY permeability: + indicates an enhancement of the permeability of the tight junctions were observed; − indicates no enhancement of permeability was observed; conditions: Lucifer Yellow flux, Caco-2 monolayer
Text: (§1) Agonists of tight junctions can be identified by their ability to enhance the flux of compounds (e.g. ions, Lucifer Yellow) through a cell monolayer that comprises tight junctions; or by their ability to reduce TEER across a cell monolayer that comprises tight junctions. Treatment of CaCo2 monolayers with peptide FCIGRL (SEQ ID NO: 1) led to a 51-fold enhancement of Lucifer Yellow permeability through CaCo2 monolayers compared to vehicle alone. Treatment of CaCo2 monolayers with peptide FCIGRL led to a 16-fold decrease in TEER across CaCo2 monolayers compared to vehicle alone.
(§2) Determination of TEER and Lucifer Yellow Flux
(§3) Prepare Modified Hank's Balanced Salt Solution (MHBSS) by obtaining 1 L bottle of HBSS removing 10 ml of HBSS and replacing it with 10 ml HEPES buffer pH 7.0. Adjust pH to 7.4±0.1 using concentrated NaOH (10N).
(§4) Remove Caco-2 cells from incubator, grown on 12-well, […], polycarbonate Transwell® filters (Corning) and record passage#, date cells seeded and age in days.
(§5) Aspirate cell culture medium from both the apical (AP) and basolateral (BL) compartments, replacing with 0.5 ml and 1.5 ml of MHBSS, respectively. Incubate cells at 37° C. for 30 minutes.
(§6) Aspirate solution from the apical compartment of each filter (n=3 per condition) and replace with 0.5 ml of control and test solutions containing Lucifer Yellow and test compound if appropriate.
(§7) Place all plates into incubator set at 37° C. (±0.2), 50 RPM (±5) for a total of 180 minutes.
At t=60, 120 and 180 minutes remove 100 μl from each basolateral compartment and place it in a 96-well plate for Lucifer Yellow analysis, replace with 100 μl of MHBSS.
Make a Lucifer Yellow standard curve with the following dilutions (7500 μM, 3750 μM, 750 μM, 375 μM, 75 μM, 37.5 μM, 7.5 μM, 3.75 μM, 0.75 μM) and pipette […] of each into a 96-well plate except for the first three standards mentioned above which require a 1:10 dilutions prior to transferring to the 96-well plate.
Harvest the remaining start solutions and what is left in each apical compartment into 1.5 ml vials. Freeze at −20° C. for future analysis.
Analyze each 96-well plate in a Tecan Spectra Fluor Plus using Magellan at 485 and 535 nm.
(§8) Cells: Caco-2 cells passage 40-60 grown on Transwell® plates for 21-28 days
(§9) Culture Medium: DMEM supplemented with 10% fetal bovine serum, 1% NEAA, 1% Penn/Strep
(§10) Buffers: Hank's Balanced Salt Solution (HBSS) without calcium and magnesium
(§11) Flasks: 100×20 mm Tissue culture dish Falcon.
(§12) Plates: 12 well polycarbonate Transwell® filters; 0.3 uM pore size

CaCo2 monolayers [2] = test: Trans Epithelial Electric Resistance (TEER) across cell monolayer; format: cell-based; set-up: key to Reduced TEER: + indicates an enhancement of the permeability of the tight junctions were observed; − indicates no enhancement of permeability was observed; conditions: Caco-2 monolayer
Text: as §1, §2, §3, §4, §5
Using the MilliCell®-ERS instrument (Millipore), measure and record the transepithelial electrical resistance (TEER) across each filter and record.
as §6, §7
At t=30, 60, 120 and 180 minutes, measure and record the transepithelial electrical resistance (TEER) across each filter using the MilliCell-ERS instrument.
as §8, §9, §10, §11, §12

Row | Substance | Enhanced LY permeability (CaCo2 monolayers [1]) | Reduced TEER (CaCo2 monolayers [2])
1 | 190 (T[AllylGly]IGRL-NH2; N-terminus assumed; SMILES C=CC[C@H](NC(=O)[C@@H](N)[C@@H](C)O)C(=O)N[C@H](C(=O)NCC(=O)N[C@@H](CCCNC(=N)N)C(=O)N[C@@H](CC(C)C)C(N)=O)[C@@H](C)CC) [compound 190] | − | −
2 | 187 (Q[AllylGly]IGRL-NH2; N-terminus assumed; SMILES C=CC[C@H](NC(=O)[C@@H](N)CCC(N)=O)C(=O)N[C@H](C(=O)NCC(=O)N[C@@H](CCCNC(=N)N)C(=O)N[C@@H](CC(C)C)C(N)=O)[C@@H](C)CC) [compound 187] | − | −
3 | 154 (F[Phg]IGRL-OH; not fully specified; printed as Phe-Phg-Ile-Gly-Arg-Leu-OH; also: peptide conjugate, Xaa: 'may be' L-phenylglycine) [compound 154] | + | +
4 | 159 (F[L‑(R,S)‑3,4‑cis‑methanoproline]IGRL; not fully specified; also: peptide conjugate) [compound 159] | − | +
5 | 138 (LRGILF-NH2; also: peptide conjugate) [compound 138] | + | +
6 | 151 (F[hSer]IGRF; also: peptide conjugate, Xaa: 'may be' homoserine) [compound 151] | − | −
7 | 148 (Ac-F[hSer]IGRA; also: peptide conjugate) [compound 148] | + | +
8 | 144 (H-F[Met(O2)]IGRL-OH; not fully specified; also: peptide conjugate, Xaa: 'may be' L-methionine-sulfone) [compound 144] | − | −
9 | 121 (FWIGRL; also: peptide conjugate) [compound 121] | + | +
10 | 76 (WCIGRL; not fully specified; printed as Trp-Cys-Ile-Gly-Arg-Leu) [compound 76] | + | +
11 | 63 (H-FCIGRF-OH; not fully specified) [compound 63] | + | +
12 | 1 (FCIGRL; not fully specified) [compound 1] | + | +
13 | 195 (D[AllylGly]IGRL-NH2; N-terminus assumed; SMILES C=CC[C@H](NC(=O)[C@@H](N)CC(=O)O)C(=O)N[C@H](C(=O)NCC(=O)N[C@@H](CCCNC(=N)N)C(=O)N[C@@H](CC(C)C)C(N)=O)[C@@H](C)CC) [compound 195] | − | −
14 | 172 (F[hSer][dI]GRL; not fully specified; also: peptide conjugate, Xaa: 'may be' homoserine) [compound 172] | − | −
15 | 132 (FNIGRL; also: peptide conjugate) [compound 132] | − | +
16 | 185 (F[dAllylGly]IGR-NH2; N-terminus assumed; SMILES C=CC[C@@H](NC(=O)[C@@H](N)Cc1ccccc1)C(=O)N[C@H](C(=O)NCC(=O)N[C@@H](CCCNC(=N)N)C(N)=O)[C@@H](C)CC) [compound 185] | − | −
17 | 166 (LRG[dI]LF-NH2; also: peptide conjugate) [compound 166] | − | −

Row | Substance | Enhanced LY permeability (CaCo2 monolayers [1]) | Reduced TEER (CaCo2 monolayers [2])
18 | 26 (LRG[dI]CF; not fully specified; printed as Leu-Arg-Gly-D-Ile-Cys-Phe) [compound 26] | + | +
19 | 198 (A[AllylGly]IGRL-NH2; N-terminus assumed; SMILES C=CC[C@H](NC(=O)[C@H](C)N)C(=O)N[C@H](C(=O)NCC(=O)N[C@@H](CCCNC(=N)N)C(=O)N[C@@H](CC(C)C)C(N)=O)[C@@H](C)CC) [compound 198] | − | −
20 | 142 (H-F[Abu]IGRL-OH; SMILES CC[C@H](NC(=O)[C@@H](N)Cc1ccccc1)C(=O)N[C@H](C(=O)NCC(=O)N[C@@H](CCCNC(=N)N)C(=O)N[C@@H](CC(C)C)C(=O)O)[C@@H](C)CC) [compound 142] | − | −
21 | 207 (F[AllylGly]SGRL-NH2; N-terminus assumed; SMILES C=CC[C@H](NC(=O)[C@@H](N)Cc1ccccc1)C(=O)N[C@@H](CO)C(=O)NCC(=O)N[C@@H](CCCNC(=N)N)C(=O)N[C@@H](CC(C)C)C(N)=O) [compound 207] | + | +
22 | 146 (H-F[Nva]IGRL-OH; not fully specified; printed as H-Phe-Nva-Ile-Gly-Arg-Leu-OH; also: peptide conjugate, Xaa: 'may be' norvaline) [compound 146] | − | −
23 | 136 (FIIGRL; also: peptide conjugate) [compound 136] | + | +
24 | 175 (F[L‑beta‑cyclopropyl‑alanine]IGRL; also: peptide conjugate) [compound 175] | − | −
25 | 188 (L[AllylGly]IGRL-NH2; N-terminus assumed; SMILES C=CC[C@H](NC(=O)[C@@H](N)CC(C)C)C(=O)N[C@H](C(=O)NCC(=O)N[C@@H](CCCNC(=N)N)C(=O)N[C@@H](CC(C)C)C(N)=O)[C@@H](C)CC) [compound 188] | − | −
26 | 118 (FFLIGRL-NH2; also: peptide conjugate) [compound 118] | + | +
27 | 20 ([dL][dR]GI[dC][dF]; not fully specified; printed as D-Leu-D-Arg-Gly-Ile-D-Cys-D-Phe) [compound 20] | + | +
28 | 116 (FMIGRL; also: peptide conjugate) [compound 116] | − | −
29 | 12 ([dF]CIGRL; also: peptide conjugate) [compound 12] | + | +
30 | 184 (F[AllylGly]IGR-NH2; N-terminus assumed; SMILES C=CC[C@H](NC(=O)[C@@H](N)Cc1ccccc1)C(=O)N[C@H](C(=O)NCC(=O)N[C@@H](CCCNC(=N)N)C(N)=O)[C@@H](C)CC) [compound 184] | − | −
31 | 37 ([dL][dR]GICF; not fully specified; printed as D-Leu-D-Arg-Gly-Ile-Cys-Phe) [compound 37] | − | −
32 | 114 (FTIGRL; also: peptide conjugate) [compound 114] | + | +
33 | 96 (H-FCIGR[βAla]-OH; SMILES CC[C@H](C)[C@H](NC(=O)[C@H](CS)NC(=O)[C@@H](N)Cc1ccccc1)C(=O)NCC(=O)N[C@@H](CCCNC(=N)N)C(=O)NCCC(=O)O) [compound 96] | + | +
